Measurements: PubChem BioAssay AID1963829 (Molecular Pharmacology Branch, DTP, NCI, 2024)

System: 935938-334-R-J1-PDC complex spheroid viability
Assay: Anticancer human tumor 935938-334-R-J1-PDC patient-derived small intestine adenocarcinoma cell line growth inhibition [POLQ]
Details: for IC50: curve of first compound; for viability, T/C: stronger effect = lower value
How it was run: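 Patient-derived tumour cells were co-cultured with HUVEC and mesenchymal stem cells as multicellular spheroids at 37 °C. They were treated with POLQ inhibitors (novobiocin, ART-558, RP6685) alone or combined with other agents. Top concentrations were at or near clinical Cmax (otherwise 10 microM; SN-38 at 1 microM), decreasing in half-log steps.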

[1] = second compound 0.0316 µM, first compound 0.0316 µM
[2] = second compound 0.0316 µM, first compound 0.1 µM
[3] = second compound 0.0316 µM, first compound 0.316 µM
[4] = second compound 0.0316 µM, first compound 1 µM
[5] = second compound 0.0316 µM, first compound 3.16 µM
[6] = second compound 0.0316 µM, first compound 10 µM
[7] = second compound 0.1 µM, first compound 0.0316 µM
[8] = second compound 0.1 µM, first compound 0.1 µM
[9] = second compound 0.1 µM, first compound 0.316 µM
[10] = second compound 0.1 µM, first compound 1 µM
[11] = second compound 0.1 µM, first compound 3.16 µM
[12] = second compound 0.1 µM, first compound 10 µM
[13] = second compound 0.316 µM, first compound 0.0316 µM
[14] = second compound 0.316 µM, first compound 0.1 µM
[15] = second compound 0.316 µM, first compound 0.316 µM
[16] = second compound 0.316 µM, first compound 1 µM
[17] = second compound 0.316 µM, first compound 3.16 µM
[18] = second compound 0.316 µM, first compound 10 µM
[19] = second compound 1 µM, first compound 0.0316 µM
[20] = second compound 1 µM, first compound 0.1 µM
[21] = second compound 1 µM, first compound 0.316 µM
[22] = second compound 1 µM, first compound 1 µM
[23] = second compound 1 µM, first compound 3.16 µM
[24] = second compound 1 µM, first compound 10 µM
[25] = second compound 3.16 µM, first compound 0.0316 µM
[26] = second compound 3.16 µM, first compound 0.1 µM
[27] = second compound 3.16 µM, first compound 0.316 µM
[28] = second compound 3.16 µM, first compound 1 µM
[29] = second compound 3.16 µM, first compound 3.16 µM
[30] = second compound 3.16 µM, first compound 10 µM
[31] = second compound 10 µM, first compound 0.0316 µM
[32] = second compound 10 µM, first compound 0.1 µM
[33] = second compound 10 µM, first compound 0.316 µM
[34] = second compound 10 µM, first compound 1 µM
[35] = second compound 10 µM, first compound 3.16 µM
[36] = second compound 10 µM, first compound 10 µM
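Note: spheroids exposed to drugs for seven days before viability read.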
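Throughout, for viability, T/C: 100% = DMSO vehicle control wells.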

## COc1cc(C2c3cc4c(cc3C(OC3OC5COC(C)OC5C(O)C3O)C3COC(=O)C23)OCO4)cc(OC)c1O (stereo unspecified) + Cc1cccc(N(C)C(=O)C2C(O)CCN2c2nc(C)cc(C(F)(F)F)c2C#N)c1
Second compound 0.0316 µM
  IC50: 577 nM
Second compound 0.1 µM
  IC50: 870 nM
Second compound 0.316 µM
  IC50: 743 nM
Second compound 1 µM
  IC50: 471 nM
Second compound 3.16 µM
  IC50: 397 nM
Second compound 10 µM
  IC50: 353 nM
[1]
  viability, T/C: 89.9%
[2]
  viability, T/C: 112%
[3]
  viability, T/C: 65.5%
[4]
  viability, T/C: 41.6%
[5]
  viability, T/C: 33.3%
[6]
  viability, T/C: 32.7%
[7]
  viability, T/C: 104%
[8]
  viability, T/C: 94.6%
[9]
  viability, T/C: 73.7%
[10]
  viability, T/C: 47.3%
[11]
  viability, T/C: 33.5%
[12]
  viability, T/C: 35.9%
[13]
  viability, T/C: 131%
[14]
  viability, T/C: 114%
[15]
  viability, T/C: 74.1%
[16]
  viability, T/C: 40.6%
[17]
  viability, T/C: 34.2%
[18]
  viability, T/C: 33.8%
[19]
  viability, T/C: 116%
[20]
  viability, T/C: 78%
[21]
  viability, T/C: 61%
[22]
  viability, T/C: 35.9%
[23]
  viability, T/C: 30.4%
[24]
  viability, T/C: 30.2%
[25]
  viability, T/C: 84.2%
[26]
  viability, T/C: 93.6%
[27]
  viability, T/C: 54%
[28]
  viability, T/C: 37.4%
[29]
  viability, T/C: 28.7%
[30]
  viability, T/C: 34.7%
[31]
  viability, T/C: 110%
[32]
  viability, T/C: 73.7%
[33]
  viability, T/C: 56.2%
[34]
  viability, T/C: 33.7%
[35]
  viability, T/C: 31.1%
[36]
  viability, T/C: 33.1%

## Nc1ccn(C2OC(CO)C(O)C2(F)F)c(=O)n1 (stereo unspecified) + Cc1cccc(N(C)C(=O)C2C(O)CCN2c2nc(C)cc(C(F)(F)F)c2C#N)c1
Second compound 0.0316 µM
  IC50: < 31.6 nM
Second compound 0.1 µM
  IC50: < 31.6 nM
Second compound 0.316 µM
  IC50: < 31.6 nM
Second compound 1 µM
  IC50: < 31.6 nM
Second compound 3.16 µM
  IC50: < 31.6 nM
Second compound 10 µM
  IC50: < 31.6 nM
[1]
  viability, T/C: 40.4%
[2]
  viability, T/C: 27.8%
[3]
  viability, T/C: 23.1%
[4]
  viability, T/C: 21%
[5]
  viability, T/C: 18.2%
[6]
  viability, T/C: 16.3%
[7]
  viability, T/C: 32.9%
[8]
  viability, T/C: 29.7%
[9]
  viability, T/C: 21.4%
[10]
  viability, T/C: 21.1%
[11]
  viability, T/C: 20.2%
[12]
  viability, T/C: 21.2%
[13]
  viability, T/C: 40.2%
[14]
  viability, T/C: 30.9%
[15]
  viability, T/C: 23.2%
[16]
  viability, T/C: 23.4%
[17]
  viability, T/C: 18.8%
[18]
  viability, T/C: 18.1%
[19]
  viability, T/C: 37.4%
[20]
  viability, T/C: 27.7%
[21]
  viability, T/C: 26.6%
[22]
  viability, T/C: 23.2%
[23]
  viability, T/C: 22.8%
[24]
  viability, T/C: 19.9%
[25]
  viability, T/C: 37.3%
[26]
  viability, T/C: 33.8%
[27]
  viability, T/C: 24.8%
[28]
  viability, T/C: 19.2%
[29]
  viability, T/C: 23.2%
[30]
  viability, T/C: 20.3%
[31]
  viability, T/C: 39.2%
[32]
  viability, T/C: 35.4%
[33]
  viability, T/C: 29.2%
[34]
  viability, T/C: 23.3%
[35]
  viability, T/C: 26.2%
[36]
  viability, T/C: 19.2%

## O=c1[nH]cc(F)c(=O)[nH]1 + Cc1cccc(N(C)C(=O)C2C(O)CCN2c2nc(C)cc(C(F)(F)F)c2C#N)c1
Second compound 0.0316 µM
  IC50: > 10000 nM
Second compound 0.1 µM
  IC50: > 10000 nM
Second compound 0.316 µM
  IC50: > 10000 nM
Second compound 1 µM
  IC50: > 10000 nM
Second compound 3.16 µM
  IC50: > 10000 nM
Second compound 10 µM
  IC50: > 10000 nM
[1]
  viability, T/C: 131%
[2]
  viability, T/C: 113%
[3]
  viability, T/C: 94.2%
[4]
  viability, T/C: 84%
[5]
  viability, T/C: 74.2%
[6]
  viability, T/C: 56.1%
[7]
  viability, T/C: 106%
[8]
  viability, T/C: 127%
[9]
  viability, T/C: 93%
[10]
  viability, T/C: 76.7%
[11]
  viability, T/C: 67.4%
[12]
  viability, T/C: 67.7%
[13]
  viability, T/C: 84%
[14]
  viability, T/C: 122%
[15]
  viability, T/C: 124%
[16]
  viability, T/C: 82.4%
[17]
  viability, T/C: 78%
[18]
  viability, T/C: 68.2%
[19]
  viability, T/C: 110%
[20]
  viability, T/C: 94.9%
[21]
  viability, T/C: 122%
[22]
  viability, T/C: 91.7%
[23]
  viability, T/C: 73.7%
[24]
  viability, T/C: 64%
[25]
  viability, T/C: 120%
[26]
  viability, T/C: 126%
[27]
  viability, T/C: 97.5%
[28]
  viability, T/C: 78.3%
[29]
  viability, T/C: 65.3%
[30]
  viability, T/C: 67.2%
[31]
  viability, T/C: 99.1%
[32]
  viability, T/C: 142%
[33]
  viability, T/C: 87.1%
[34]
  viability, T/C: 95%
[35]
  viability, T/C: 68%
[36]
  viability, T/C: 65.9%
